The values below come from patent publication US20250064773A1, “TARGETING ERO1 ALPHA WITH AURONE DERIVATIVES” (West Virginia University Board of Governors on behalf of …, priority 2021, published 2025).

One experiment has as its target T1, recombinant ERO1α (Homo sapiens, UniProt Q96HE7, C104A/C131A/C166A).
T1 construct: made in house
T1 sequence (Q96HE7 22-468 C104A/C131A/C166A): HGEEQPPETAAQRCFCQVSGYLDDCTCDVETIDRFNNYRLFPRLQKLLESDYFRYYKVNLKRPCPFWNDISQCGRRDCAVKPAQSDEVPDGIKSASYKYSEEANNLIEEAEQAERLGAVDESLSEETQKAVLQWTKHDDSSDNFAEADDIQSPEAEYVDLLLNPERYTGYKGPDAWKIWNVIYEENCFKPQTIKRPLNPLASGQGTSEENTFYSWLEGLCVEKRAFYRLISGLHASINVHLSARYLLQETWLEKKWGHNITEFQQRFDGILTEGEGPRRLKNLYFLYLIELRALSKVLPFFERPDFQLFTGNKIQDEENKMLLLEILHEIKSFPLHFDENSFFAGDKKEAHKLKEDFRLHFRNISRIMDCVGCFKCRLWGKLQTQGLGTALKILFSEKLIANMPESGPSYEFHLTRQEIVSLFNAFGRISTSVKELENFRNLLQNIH
In words: Surface plasma resonance (Biacore) binding. As to conditions: SPR. How it is done: Surface plasma resonance (SPR) was utilized as an orthogonal assay to confirm direct binding between T151742 and ERO1α. For the SPR assay, recombinant ERO1α was crosslinked to a C5 chip and varying concentrations of ligand T151742 were evaluated for detection of changes in refractive index, due to change in mass on the chip when ligand is bound to the protein. […] The relatively high Kd value is in part due to the fast off-rate.
Cell Lines: PC-9 cell line used was obtained from Sigma Aldrich and grown in RPMI 1640 medium with 10% fetal bovine serum and 1% penicillin/streptomycin. HCC4006, U266, MM1.s, and Beas-2B cell lines were obtained from ATCC and cultured in either RPMI 1640 or DMEM with 10% fetal bovine serum and 1% penicillin/streptomycin. […] Plate was then read on the BioTek Cytation 5 at 530/590 nm. […] Plate was then read at 570 nm. Treated wells were all compared to DMSO control wells to calculate percent growth inhibition and the IC50 was calculated using GraphPad (log(inhibitor) vs growth inhibition). […] Images were then quantified using ImageJ. […] Cells were aliquoted at 1 million cells per PCR tube in PBS and heated in Bio-Rad T100 thermal cycler at indicated temperatures (RT, 46° C., 48° C., 50° C., 52° C., 54° C., 56°, 58° C., and 60° C.) for 3 minutes and aggregation temperature was determined by western blot analysis. […]
(In general: In SPR one partner is held on a chip, and binding of the other changes the refractive index at the surface.)

The target in another experiment is T2, MAO-B (Homo sapiens, UniProt P27338).
T2 sequence (P27338 1-520): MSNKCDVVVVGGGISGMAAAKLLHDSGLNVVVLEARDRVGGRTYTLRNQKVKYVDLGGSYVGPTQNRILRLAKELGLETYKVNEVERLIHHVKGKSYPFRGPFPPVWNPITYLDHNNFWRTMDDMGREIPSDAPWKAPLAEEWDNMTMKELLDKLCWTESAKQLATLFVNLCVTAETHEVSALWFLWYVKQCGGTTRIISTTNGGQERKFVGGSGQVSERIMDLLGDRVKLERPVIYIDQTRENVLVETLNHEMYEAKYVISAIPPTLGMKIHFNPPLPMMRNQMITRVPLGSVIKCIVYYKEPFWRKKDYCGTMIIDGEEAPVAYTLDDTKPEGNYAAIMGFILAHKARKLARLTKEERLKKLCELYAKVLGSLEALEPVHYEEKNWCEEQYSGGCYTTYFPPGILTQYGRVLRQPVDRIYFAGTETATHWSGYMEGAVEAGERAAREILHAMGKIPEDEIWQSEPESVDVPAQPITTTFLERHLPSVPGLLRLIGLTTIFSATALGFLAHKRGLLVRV
Conditions: cited from earlier work.

The target in a further experiment is LSD-1 (Homo sapiens, UniProt O60341). In words: LSD-1 inhibitor screening assay kit (demethylase activity). Type of experiment: biochemical. Conditions: at concentrations ≤25 μM. The text has this:
T151742 was used to generate a concentration response. […] Experiments performed in triplicates and shown is the mean and standard deviation of three independent experiments.

With `CN(C)c1ccc(/C=C2\Oc3cc(O)ccc3C2=O)cc1` [Compound T151742], the off-rate entry on recombinant ERO1α was “fast off-rate”. Besides, on MAO-B, the “inhibition of / activity against MAO-B” value was “showed activity”. Besides, the “inhibition of LSD-1 demethylase activity” value on LSD-1 is “did not inhibit”.
